We go through ten molecules from PubChem BioAssay (NCI).

Molecules are shown by their SMILES.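 Where inhibition never reached the appropriate level, the endpoint shown equals the highest concentration tested. Otherwise, values were interpolated linearly from a five-concentration, 48-hour dose response in 96-well plates. Here, GI50 denotes the concentration required for 50% inhibition of growth. TGI: concentration producing complete growth inhibition.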

What all share (assay): growth of human tumour cells (NCI), 48 h
For assay [1], the system named is ACHN renal.
Assay [2] relates to HOP-92 NSCLC.
Assay [3] has as its system HT29 colon.
In assay [4] the test system is LOX IMVI melanoma.
In assay [5] the test system is M14 melanoma.
Assay [6] relates to MOLT-4 leukemia.
Assay [7] relates to OVCAR-5 ovarian.
The subject of assay [8] is SK-OV-3 ovarian.
Assay [9] has as its system SR leukemia.
Assay [10] concerns U251 CNS.

Take `CCc1c(O)c2c(c(O)c1C(C)=O)C(=O)c1c(cc(O)c(C(=O)O)c1C(=O)O)C2=O`: the TGI in [1], in assay [2], in [3], in assay [4], in assay [5] and in assay [6] was greater than 100 µM throughout. The TGI in assay [7], in [8], in assay [9] and in [10] was greater than 100 µM throughout.
`Cc1ccc(NC(=O)C2C(=O)N(c3ccc(C)c(C)c3)C(=O)/C2=N\NC(N)=S)cc1C` (centres undefined): the TGI in assay [1], in assay [2], in assay [3], in [4], in assay [5] and in [6] was greater than 100 µM throughout. Besides, the TGI in assay [8], in assay [9] and in assay [10] was greater than 100 µM in each case.
`COc1ccc(Cl)cc1NC(=O)c1cccc([N+](=O)[O-])c1O`: the TGI in [1] is greater than 70.4 µM; in assay [2], 16.6 µM; in [3], greater than 95.6 µM; in [4] it was greater than 84.2 µM; in assay [5], greater than 100 µM; in [6], greater than 100 µM. Moreover, the TGI in assay [7] is greater than 100 µM; in assay [8], greater than 77.9 µM; in [9], greater than 76.1 µM; in assay [10], greater than 62.7 µM.
For `c1cc(-c2cn[nH]c2)cc(-c2cn[nH]c2)c1`, the TGI in [2] is greater than 100 µM; in assay [4], greater than 100 µM; in [5], greater than 100 µM; in [6], greater than 100 µM; in [8], 37.5 µM; in assay [9], greater than 100 µM. This molecule also registered a TGI in [10] greater than 100 µM.
On to `COc1cc(-c2cc(/C=C3\C(=O)Nc4ccccc43)[nH]n2)cc(OC)c1OC`, for which the GI50 in assay [1] is 2.5 µM; in assay [2], 1.97 µM; in assay [3], 3.15 µM; in [4] it was 2.43 µM; in [5], 2.29 µM; in [6], 2.45 µM. Also, the GI50 is 5.16 µM in assay [7], 5 µM in assay [8], 2.89 µM in [9] and 3.63 µM in assay [10]. The TGI in assay [1] stood at 12 µM; in assay [2], 9.12 µM; in assay [3], 17.7 µM; in assay [4], 7.94 µM; in assay [5] it was 7.17 µM; in assay [6], 6.71 µM. Further, the TGI worked out at 27.9 µM in [7], 26.7 µM in [8], 14.8 µM in assay [9] and 19.6 µM in assay [10].
On to `O=C(CNc1ncco1)Nc1ccc(S(=O)(=O)c2ccc(NC(=O)CNc3ncco3)cc2)cc1`, for which the GI50 in assay [1] was 2.23 µM; in assay [2], 3.37 µM; in assay [4], 0.308 µM; in assay [5], 1.7 µM; in assay [6], 3.13 µM; in assay [7], 2.03 µM. Besides, the GI50 in assay [8] is 10.5 µM; in assay [9] it was 2.36 µM; in [10], 1.17 µM. Also, the TGI in [1] was found to be 6.23 µM; in assay [2], 13 µM; in assay [4] it was 1.92 µM; in assay [5], 3.55 µM; in assay [6], 8.45 µM; in assay [7] it was 4.13 µM. Also, the TGI in assay [8] was determined as 24.1 µM; in [9], 5.35 µM; in [10], 2.48 µM.
As for `Cc1cccc2c1O/C(=C\c1ccc([N+](=O)[O-])o1)C2=O`, the GI50 in assay [1] was 0.367 µM; in assay [2] it was 1.16 µM; in assay [3] it was 0.324 µM; in assay [4], 1.23 µM; in [5] it was 1.43 µM; in [6], 1.52 µM. In addition, the GI50 was 1.79 µM in [7], 2.57 µM in assay [8], 0.12 µM in assay [9] and 1.44 µM in [10]. Moreover, the TGI turned out to be 1.44 µM in [1]; 2.95 µM in assay [2]; 1.27 µM in assay [3]; 2.69 µM in assay [4]; 3.21 µM in assay [5]; 5.7 µM in [6]. For the same molecule, the TGI is 3.74 µM in assay [7], 8.28 µM in assay [8], 0.727 µM in assay [9] and 2.89 µM in assay [10].
With `CCCCCCCCCCCCCC(=O)C(C)N` (centres undefined), the GI50 in assay [1] was 6.74 µM; in [2], 5.71 µM; in [3], 3.89 µM; in assay [4] it was 1.88 µM; in [5] it was 8.66 µM; in [6], 7.06 µM. Besides, the GI50 in assay [7] is 10.6 µM; in assay [8] it was 9.36 µM; in [9], 2.68 µM; in assay [10] it was 8.29 µM. The TGI in assay [1] was 20.7 µM; in assay [2] it was 19.2 µM; in assay [3], 13.7 µM; in [4] it was 3.66 µM; in [5], 22.1 µM; in [6], 23.5 µM. Further, the TGI in assay [7] was found to be 23.8 µM; in assay [8], 22 µM; in assay [9] it was 8.47 µM; in [10] it was 21.7 µM.
Turning to `O=C(O)c1cscc1Cc1cccs1`, the TGI in assay [1], in assay [2], in [3], in [4], in assay [5] and in [6] was greater than 100 µM throughout. For the same molecule, the TGI in assay [7], in assay [8], in assay [9] and in [10] was greater than 100 µM in each case.
On to `[C-]#[N+][C@]12C(=O)[C@H](CCC1(C)C)C(C)(C)[C@H]1C(=O)N(C)c3cccc2c31`, for which the GI50 in assay [1] is 80.7 µM; in [2], 3.11 µM; in assay [3] it was 17.6 µM; in [4], greater than 100 µM; in assay [5], 29.9 µM; in assay [6] it was 10.3 µM. Besides, the GI50 is greater than 100 µM in assay [7], 44.4 µM in assay [8], 6.52 µM in assay [9] and 7.08 µM in assay [10]. Further, the TGI in assay [1], in assay [2], in [3], in assay [4], in assay [5] and in assay [6] was greater than 100 µM each time. Also, the TGI in assay [7], in assay [8], in assay [9] and in assay [10] was greater than 100 µM each time.
